These results are taken from patent publication US20080008734A1, “Reduction of skin irritation caused by biomedical electrodes” (priority 2006, published 2008).

For one series, the system named is skin. Nature of the series: Stimulation erythema with antioxidant incorporated in the conductive hydrogel adhesive. Format: in vivo. The following applies: in UV cured acrylic hydrogel adhesive; this amount gave a very weak adhesive that cohesively failed. An excerpt: In the majority of conductive hydrogel adhesives used in these biomedical electrodes are UV cured acrylics formed by the free radical polymerization of hydrophilic acrylic monomers in water. UV light generates free radicals from photoinitiators, however antioxidants react with these free radicals thereby inhibiting the polymerization of the acrylic monomers. Antioxidants such as MEHQ are used to preserve acrylic monomers until use. […] A few ppm of the very potent antioxidant Astaxathin inhibited polymerization. The greater than 1500 ppm of MEHQ alone that was needed to prevent and/or alleviate stimulation erythema gave a very weak hydrogel adhesive that cohesively failed leaving residue on the skin.

Series [1] is described as follows: Stability of SAP in the aqueous environment of hydrogel adhesives. Format: physicochemical. The following applies: pH 4.0±0.5 aqueous environment of the hydrogel adhesives. An excerpt: (See U.S. Pat. No. 6,842,636 B2 to Perrault, et al. and U.S. Pat. No. 6,115,625 to Heard et al.).

Turning to `COc1ccc(O)cc1` [MEHQ, monomethyl ether of hydroquinone], in the series with skin, the “amount of MEHQ alone needed to prevent and/or alleviate stimulation erythema” value is reported as “greater than 1500 ppm”.
Turning to `O=C1O[C@H](C(O)CO)C(O)=C1OP(=O)(O)O` (some centres unmarked) [SAP, Sodium Ascorbyl Phosphate], the stability over time entry in series [1] is “not stable over time”.
